Experimental data: patent US6737383B1, “Herbicidal oxadiazolidines” (priority 1999, dated 2004)

Tests used:
smallflower flatsedge = test: Test B flood test smallflower flatsedge; type: in vivo, Cyperus difformis
Procedure, shortened: (§1)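 Plants were grown to the 2-leaf stage before treatment with test chemical, then held in a greenhouse for twelve to sixteen days. Injury was visually rated against untreated controls on a 0–10 scale, where 0 is no effect and 10 is complete control.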

velvetleaf = test: Test B pre/postemergence velvetleaf; type: in vivo, Abutilon theophrasti
Procedure, shortened: (§2)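 Response is a visual 0-to-10 score relative to untreated plants, where 0 means no effect and 10 means complete control, taken twelve to sixteen days after application. Treatments went onto soil at planting and onto foliage of 1- to 4-leaf plants, using a surfactant-containing non-phytotoxic solvent.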

blackgrass = test: Test B pre/postemergence blackgrass; type: in vivo, Alopecurus myosuroides
Procedure, shortened: as §2

corn = test: Test B pre/postemergence corn; type: in vivo, Zea mays
Procedure, shortened: as §2

rape = test: Test B pre/postemergence rape; type: in vivo, Brassica napus
Procedure, shortened: as §2

rice = test: Test B flood test rice; type: in vivo, Oryza sativa
Procedure, shortened: as §1

wheat = test: Test B pre/postemergence wheat; type: in vivo, Triticum aestivum
Procedure, shortened: as §2

bedstraw = test: Test B pre/postemergence bedstraw; type: in vivo, Galium aparine
Procedure, shortened: as §2

sugar beet = test: Test B pre/postemergence sugar beet; type: in vivo, Beta vulgaris
Procedure, shortened: as §2

duck salad = test: Test B flood test duck salad; type: in vivo, Heteranthera limosa
Procedure, shortened: as §1

purple nutsedge = test: Test B pre/postemergence purple nutsedge; type: in vivo, Cyperus rotundus
Procedure, shortened: as §2

pigweed = test: Test B pre/postemergence pigweed; type: in vivo, Amaranthus retroflexus
Procedure, shortened: as §2

surinam grass = test: Test B pre/postemergence surinam grass; type: in vivo, Brachiaria decumbens
Procedure, shortened: as §2

soybean = test: Test B pre/postemergence soybean; type: in vivo, Glycine max
Procedure, shortened: as §2

crabgrass = test: Test B pre/postemergence crabgrass; type: in vivo, Digitaria sanguinalis
Procedure, shortened: as §2

wild oat = test: Test B pre/postemergence wild oat; type: in vivo, Avena fatua
Procedure, shortened: as §2

[1] = Rate 62 g/ha, headed Pre-emergence (flood test species), scale 0 to 10 (0 no effect, 10 complete control)
[2] = Rate 125 g/ha, Pre-emergence, flood test species, scale 0 to 10 where 0 is no effect and 10 is complete control
[3] = Rate 250 g/ha, Pre-emergence, flood-test species, scale 0 to 10, 0 is no effect, 10 is complete control
[4] = Rate 500 g/ha, Pre-emergence, flood test species, scale 0 to 10 (0 no effect, 10 complete control)
[5] = Postemergence, Rate 125 g/ha, scale 0 to 10, 0 is no effect, 10 is complete control
[6] = Preemergence, Rate 62 g/ha, scale of 0 to 10 where 0 is no effect and 10 is complete control
[7] = Preemergence, Rate 250 g/ha, scale of 0 to 10 where 0 is no effect and 10 is complete control
[8] = Preemergence, Rate 500 g/ha, scale of 0 to 10 where 0 is no effect and 10 is complete control
[9] = Rate 62 g/ha, Postemergence, scale 0 to 10 (0 no effect, 10 complete control)
[10] = Rate 500 g/ha, Postemergence, scale 0 to 10, 0 no effect, 10 complete control
[11] = Rate 250 g/ha, Postemergence, scale of 0 to 10 where 0 is no effect and 10 is complete control

Cc1c(-n2c(=O)on(C(=O)N(c3ccc(F)cc3F)C(C)C)c2=O)ccc2ccccc12 [Compound 337]
S. Flatsedge plant response rating (smallflower flatsedge; [1]): 0
S. Flatsedge plant response rating (smallflower flatsedge; [2]): 0
S. Flatsedge plant response rating (smallflower flatsedge; [3]): 0
S. Flatsedge plant response rating (smallflower flatsedge; [4]): 0
Plant response rating, Velvetleaf (velvetleaf; [5]): 0
Velvetleaf plant response rating (velvetleaf; [6]): 0
Velvetleaf plant response rating (0 to 10 scale) (velvetleaf; Preemergence, Rate 125 g/ha): 0
Velvetleaf plant response rating (velvetleaf; [7]): 0
Velvetleaf plant response rating (velvetleaf; [8]): 0
Velvetleaf plant response rating (velvetleaf; [9]): 0
Plant response rating, Velvetleaf (velvetleaf; [10]): 0
Plant response rating, Blackgrass (blackgrass; [5]): 0
Blackgrass plant response rating (blackgrass; [6]): 0
Blackgrass plant response rating (0 to 10 scale) (blackgrass; Preemergence, Rate 125 g/ha): 0
Blackgrass plant response rating (blackgrass; [7]): 2
Blackgrass plant response rating (blackgrass; [8]): 3
Blackgrass plant response rating (blackgrass; [9]): 0
Plant response rating, Blackgrass (blackgrass; [11]): 0
Plant response rating, Blackgrass (blackgrass; [10]): 0
Plant response rating, Corn (corn; [5]): 0
Corn plant response rating (corn; [6]): 0
Corn plant response rating (0 to 10 scale) (corn; Preemergence, Rate 125 g/ha): 0
Corn plant response rating (corn; [7]): 0
Corn plant response rating (corn; [8]): 0
Corn plant response rating (corn; [9]): 0
Plant response rating, Corn (corn; [10]): 0
Plant response rating, Rape (rape; [5]): 0
Rape plant response rating (rape; [6]): 0
Rape plant response rating (0 to 10 scale) (rape; Preemergence, Rate 125 g/ha): 0
Rape plant response rating (rape; [7]): 0
Rape plant response rating (rape; [8]): 0
Rape plant response rating (rape; [9]): 0
Plant response rating, Rape (rape; [10]): 0
Rice plant response rating (rice; [1]): 0
Rice plant response rating (rice; [2]): 0
Rice plant response rating (rice; [3]): 0
Rice plant response rating (rice; [4]): 0
Plant response rating, Wheat (wheat; [5]): 0
Wheat plant response rating (wheat; [6]): 0
Wheat plant response rating (0 to 10 scale) (wheat; Preemergence, Rate 125 g/ha): 0
Wheat plant response rating (wheat; [7]): 0
Wheat plant response rating (wheat; [8]): 0
Wheat plant response rating (wheat; [9]): 0
Plant response rating, Wheat (wheat; [10]): 0
Plant response rating, Bedstraw (bedstraw; [5]): 1
Bedstraw plant response rating (bedstraw; [6]): 0
Bedstraw plant response rating (0 to 10 scale) (bedstraw; Preemergence, Rate 125 g/ha): 0
Bedstraw plant response rating (bedstraw; [7]): 0
Bedstraw plant response rating (bedstraw; [8]): 0
Bedstraw plant response rating (bedstraw; [9]): 0
Plant response rating, Bedstraw (bedstraw; [11]): 2
Plant response rating, Bedstraw (bedstraw; [10]): 4
Plant response rating, Sugarbeets (sugar beet; [5]): 0
Sugarbeets plant response rating (sugar beet; [6]): 0
Sugarbeets plant response rating (0 to 10 scale) (sugar beet; Preemergence, Rate 125 g/ha): 0
Sugarbeets plant response rating (sugar beet; [7]): 0
Sugarbeets plant response rating (sugar beet; [8]): 0
Sugarbeets plant response rating (sugar beet; [9]): 0
Plant response rating, Sugarbeets (sugar beet; [10]): 0
Ducksalad plant response rating (duck salad; [1]): 0
Ducksalad plant response rating (duck salad; [2]): 0
Ducksalad plant response rating (duck salad; [3]): 0
Ducksalad plant response rating (duck salad; [4]): 0
Plant response rating, Nutsedge (purple nutsedge; [5]): 0
Nutsedge plant response rating (purple nutsedge; [6]): 0
Nutsedge plant response rating (0 to 10 scale) (purple nutsedge; Preemergence, Rate 125 g/ha): 0
Nutsedge plant response rating (purple nutsedge; [7]): 0
Nutsedge plant response rating (purple nutsedge; [8]): 0
Nutsedge plant response rating (purple nutsedge; [9]): 0
Plant response rating, Nutsedge (purple nutsedge; [10]): 0
Plant response rating, Redroot pigweed (pigweed; [5]): 0
Redroot pigweed plant response rating (pigweed; [6]): 0
Redroot pigweed plant response rating (0 to 10 scale) (pigweed; Preemergence, Rate 125 g/ha): 0
Redroot pigweed plant response rating (pigweed; [7]): 0
Redroot pigweed plant response rating (pigweed; [8]): 0
Redroot pigweed plant response rating (pigweed; [9]): 0
Plant response rating, Redroot pigweed (pigweed; [10]): 0
Plant response rating, B. signalgrass (surinam grass; [5]): 0
B. signalgrass plant response rating (surinam grass; [6]): 0
B. signalgrass plant response rating (0 to 10 scale, 0 is no effect, 10 is complete control) (surinam grass; Preemergence, Rate 125 g/ha): 0
B. signalgrass plant response rating (surinam grass; [7]): 0
B. signalgrass plant response rating (surinam grass; [8]): 0
B. signalgrass plant response rating (surinam grass; [9]): 0
Plant response rating, B. signalgrass (surinam grass; [11]): 0
Plant response rating, B. signalgrass (surinam grass; [10]): 0
Plant response rating, Soybean (soybean; [5]): 1
Soybean plant response rating (soybean; [6]): 0
Soybean plant response rating (0 to 10 scale) (soybean; Preemergence, Rate 125 g/ha): 0
Soybean plant response rating (soybean; [7]): 0
Soybean plant response rating (soybean; [8]): 0
Soybean plant response rating (soybean; [9]): 1
Plant response rating, Soybean (soybean; [10]): 2
Plant response rating, Crabgrass (crabgrass; [5]): 0
Crabgrass plant response rating (crabgrass; [6]): 0
Crabgrass plant response rating (0 to 10 scale) (crabgrass; Preemergence, Rate 125 g/ha): 0
Crabgrass plant response rating (crabgrass; [7]): 0
Crabgrass plant response rating (crabgrass; [8]): 3
Crabgrass plant response rating (crabgrass; [9]): 0
Plant response rating, Crabgrass (crabgrass; [10]): 0
Plant response rating, Wild oats (wild oat; [5]): 0
Wild oats plant response rating (wild oat; [6]): 0
Wild oats plant response rating (0 to 10 scale) (wild oat; Preemergence, Rate 125 g/ha): 0
Wild oats plant response rating (wild oat; [7]): 0
Wild oats plant response rating (wild oat; [8]): 0
Wild oats plant response rating (wild oat; [9]): 0
Plant response rating, Wild oats (wild oat; [10]): 0
